In brackets after ≈: the same amount, converted by molar mass. Like-named read-outs stand apart in the source and are kept apart here.
Experiment: Solubility in methylene chloride (standard method for ascertaining lipophilicity)
Format: physicochemical
Text: Throughout the present application many CPT compounds have been defined with a substituent X as shown in structure I or II where X is defined and many substituents are shown. With the exception of the simple substituents where R is C1-5 alkyl (which can be prepared by the method of Sawada et al. (Chem. Pharm. Bull. 39, 2574-2580 ([…]))), the other compounds recited herein can not be made by conventional methods, but require, to the best of the inventors' knowledge, the use of the method of the present invention. Using the method of Sawada et al, the yield of alkyl became progressively lower essentially terminating where R is C5 alkyl. All other R substituents shown herein can be made only by the present method involving Grignard reactions, especially analogs like 7-t-butyl-10,11-methylenedioxy-CPT, 7-trimethylsilylmethyl-10,11-methylenedioxy-CPT, 7-naphthylmethyl-10,11-methylenedioxy-CPT, 7-p-fluorophenyl-10,11-methylenedioxy-CPT, 7-p-trifluoromethyl-10,11-methylenedioxy-CPT, and 7-p-tolyl-10,11-methylenedioxy-CPT. A number of compounds made by this method have shown unusual properties. For example, Table 1 gives the methylene chloride solubility of a number of compounds which are made by the methods described by this patent. For example, 7-butyl-10-aminocamptothecin made by this procedure is remarkably lipophilic. 10-Aminocamptothecin has a solubility of —0.2 mg/ml. […] It has been found by several groups that lipophilic substituents at the 7 position have excellent activity in the inhibition of topoisomerase I and in in vitro and in vivo cancer therapy.
We have utilized a standard method for ascertaining the lipophilicity of a number of camptothecin analogs. This involves the solubility in methylene chloride. This solvent is an excellent solvent for fat-soluble compounds. As can be noted with only one exception, compounds with the 7-butyl substituent are considerably more soluble than those without this constituent. Thus camptothecin is soluble only to the extent of 0.6 mg/ml whereas 7-butyl-camptothecin has a solubility of 20 mg/ml. 10-Amino-camptothecin is soluble only to the extent of 0.2 mg/ml. Very unexpectedly, 7-butyl-10-amino-camptothecin is very soluble at 145 mg/ml. It is also conceivable that camptothecin analogs with 7-pentyl or 7-hexyl substituents or 7-cyclopentyl or 7-cyclohexyl substituents will have increased solubility.

Compound | Solubility [µg/mL] | also measured
7-Benzyl-10,11-CPT | 1800 | 
7-Butyl-9-methyl-CPT | 180 | 
CCC(C)c1c2c(nc3ccccc13)-c1cc3c(c(=O)n1C2)COC(=O)C3(O)CC (centres unmarked) [7-(sec)Butyl-CPT] | 33000 (≈ 81600 µM) | 
CC[C@@]1(O)C(=O)OCc2c1cc1n(c2=O)Cc2c-1nc1cc3c(cc1c2Cc1ccccc1)OCO3 [7-Benzyl-10,11-MD-CPT, 7-Benzyl-10,11-MD-20(S)-Camptothecin] | 1800 (≈ 3730 µM) | 
CCCCc1c2c(nc3cc4c(cc13)OCCO4)-c1cc3c(c(=O)n1C2)COC(=O)C3(O)CC (centres unmarked) [7-Butyl-10,11-ED-CPT] | 7000 (≈ 15100 µM) | 
CCCCc1c2c(nc3cc4c(cc13)OCO4)-c1cc3c(c(=O)n1C2)COC(=O)[C@]3(O)CC [7-Butyl-10,11-MD-CPT] | 8500 (≈ 19000 µM) | 
CCCCc1c2c(nc3ccc(N)cc13)-c1cc3c(c(=O)n1C2)COC(=O)[C@]3(O)CC [7-Butyl-10-Amino-CPT, 7-n-Butyl-10-Amino-20(S)-Camptothecin] | 145000 (≈ 346000 µM) | 
CCCCc1c2c(nc3ccc(O)cc13)-c1cc3c(c(=O)n1C2)COC(=O)[C@]3(O)CC [7-Butyl-10-OH-CPT] | <50 | 
CCCCc1c2c(nc3ccc(OC)cc13)-c1cc3c(c(=O)n1C2)COC(=O)C3(O)CC (centres unmarked) [7-Butyl-10-methoxy-CPT] | 2000 (≈ 4600 µM) | 
CC[C@@]1(O)C(=O)OCc2c1cc1n(c2=O)Cc2c-1nc1cc3c(cc1c2-c1ccc(Cl)cc1)OCO3 [7-p-Chlorophenyl-10,11-MD-CPT, 7-p-Chlorophenyl-10,11-MD-20(S)-Camptothecin] | 6300 (≈ 12500 µM) | 
CC[C@@]1(O)C(=O)OCc2c1cc1n(c2=O)Cc2c-1nc1cc3c(cc1c2-c1ccc(F)cc1)OCO3 [7-p-Fluorophenyl-10,11-MD-CPT, 7-p-Fluorophenyl-10,11-MD-20(S)-Camptothecin] | 2550 (≈ 5240 µM) | 
CC[C@@]1(O)C(=O)OCc2c1cc1n(c2=O)Cc2c-1nc1cc3c(cc1c2-c1ccc(C)cc1)OCO3 [7-p-Tolyl-10,11-MD-CPT, 7-p-Tolyl-10,11-MD-20(S)-Camptothecin] | 4600 (≈ 9530 µM) | 
CCC1(O)C(=O)OCc2c1cc1n(c2=O)Cc2cc3c(N)c4c(cc3nc2-1)OCO4 (centres unmarked) [9-Amino-10,11-MD-CPT, reference compound] | <20 | 
CCC1(O)C(=O)OCc2c1cc1n(c2=O)Cc2cc3c([N+](=O)[O-])c4c(cc3nc2-1)OCO4 (centres unmarked) [9-Nitro-10,11-MD-CPT, reference compound] | 250 (≈ 572 µM) | 
CCC1(O)C(=O)OCc2c1cc1n(c2=O)Cc2cc3cc4c(cc3nc2-1)OCCO4 (centres unmarked) [10,11-ED-CPT, reference compound] | 200 (≈ 492 µM) | 
CC[C@@]1(O)C(=O)OCc2c1cc1n(c2=O)Cc2cc3cc4c(cc3nc2-1)OCO4 [10,11-MD-CPT, 10,11-methylenedioxy-CPT, reference compound] |  | Solubility (Solubility in CH2Cl2): <8 µg/mL
CC[C@@]1(O)C(=O)OCc2c1cc1n(c2=O)Cc2cc3cc(OC)ccc3nc2-1 [10-Methoxy-CPT, reference compound] | 3000 (≈ 7930 µM) | 
CC[C@@]1(O)C(=O)OCc2c1cc1n(c2=O)Cc2cc3ccccc3nc2-1 [Camptothecin] |  | Solubility (Solubility in CH2Cl2): 600 µg/mL (≈ 1720 µM); Solubility (organic solvent or mixture, methylene chloride, read-out: solubility in methylene chloride): 600 µg/mL (≈ 1720 µM)
CCCCc1c2c(nc3ccccc13)-c1cc3c(c(=O)n1C2)COC(=O)C3(O)CC (centres unmarked) [Example 7-Butyl-CPT, 7-butyl-camptothecin] | 20000 (≈ 49400 µM) | solubility in methylene chloride: 20000 µg/mL (≈ 49400 µM)
CC[C@@]1(O)C(=O)OCc2c1cc1n(c2=O)Cc2cc3c(N)cccc3nc2-1 [Example 9-Amino-CPT, 9-Amino-CPT, reference compound] | <30 | 
CCC1(O)C(=O)OCc2c1cc1n(c2=O)Cc2cc3c(C)cccc3nc2-1 (centres unmarked) [Example 9-Methyl-CPT, 9-Methyl-CPT, reference compound] | 100 (≈ 276 µM) | 
CC[C@@]1(O)C(=O)OCc2c1cc1n(c2=O)Cc2cc3cc(N)ccc3nc2-1 [Example 10-Amino-CPT, 10-Aminocamptothecin, reference compound] | 200 (≈ 550 µM) | solubility in methylene chloride: 200 µg/mL (≈ 550 µM)
CC[C@@]1(O)C(=O)OCc2c1cc1n(c2=O)Cc2cc3cc(O)ccc3nc2-1 [Example 10-OH-CPT, 10-OH-CPT, reference compound] |  | Solubility (Solubility in CH2Cl2): <40 µg/mL

Source: patent US7067666B2, “7-substituted camptothecin and camptothecin analogs and methods for producing the same” (priority 2003, dated 2006)
